The values that follow come from patent US20150238446A1, “NEW TREATMENT OF FISH WITH A NANOSUS PENS ION OF LUFENURON OR HEXAFLUMURON” (Novartis AG, priority 2012, published 2015).

Structures are written as SMILES.

For data set [1] the following is noted: cited from earlier work.
Data set [2] relates to sea lice. The settings on record: cited from earlier work; for duration of activity against sea lice: oily injectable formulations, in particular with a vaccine against furunculosis (WO99/063824).
A short description of data set [3]: Stability testing of oily lufenuron or hexaflumuron formulations. Particulars: in organic solvents/media. It is filed as physicochemical. The text has this: WO99/063824 discloses the use of hexaflumuron and lufenuron, both members of the chemical class of benzoylureas, in the control of sea lice infestations on fish. Hexaflumurone is applied to the fish orally, via bath treatment or via injection, lufenuron is proposed exclusively for injection. Oily injectable formulations of the two active ingredients, in particular those comprising, in addition, a vaccine against furunculosis, show activity against sea lice for 128 days or in case of hexaflumuron even longer. […] The resulting low shelf life make them unsuited for commercial use. […] In addition, as both hexaflumuron and lufenuron have a strong tendency to aggregate and form sediments in an aqueous environment, the handling of water-based injectables is difficult and cumbersome. So it is not surprising that no commercial lufenuron or hexaflumuron sea lice product has made it to the market until now.

Data set [4] deals with L. salmonis. Description: In vivo test in Atlantic salmon, natural sea lice infestation, pre-adult and adult count. Particulars: nanosuspension injected. The procedure:
Three groups of 150 salmon (Atlantic Salmon, S. salar) of an average weight 200 g were injected with an amount of the above nanosuspension (a) equivalent to 25 mg (cage 1), 50 mg (cage 2) or 75 mg lufenuron per kg salmon (cage 3). A fourth cage containing 150 salmon of average weight 200 g was added to the study as a non-treated control group.
After treatment, the fish were exposed to natural sea lice infestation for a period of 8 months. During the study the water temperature varied between 4 and 12° C. Sea louse numbers were assessed on a monthly basis until month 8. Counts were conducted on 10 fish at each sampling occasion. The numbers of pre-adults and adult L. salmonis were recorded for each fish. Efficacy was calculated using the formula:
% Efficacy=100−(100×mean of treatment group/mean of control).

As for `O=C(NC(=O)c1c(F)cccc1F)Nc1cc(Cl)c(OC(F)(F)C(F)F)c(Cl)c1` [hexaflumuron, 1-[3,5-dichloro-4-(1,1,2,2-tetrafluoroethoxyl)phenyl]-3-(2,6-difluorobenzoyl)urea], the water-solubility in data set [1] is at most 0.027 µg/mL. In data set [2] (hexaflumuron containing aqueous suspension (WO99/063824)), the “performance in vivo against sea lice” value is on record as “poor performance”. In addition, the “duration of activity against sea lice” value in data set [2] is reported as above 128 days. Moreover, the “chemical stability of the active ingredient” value in data set [3] is given as “chemically instable”.

In the case of `O=C(NC(=O)c1c(F)cccc1F)Nc1cc(Cl)c(OC(F)(F)C(F)C(F)(F)F)cc1Cl` (centres unmarked) [lufenuron, N-{[2,5-Dichlor-4-(1,1,2,3,3,3-hexafluorpropoxyl)phenyl]carbamoyl}-2,6-difluorbenzamid], the water-solubility in data set [1] is at most 0.06 µg/mL. The “duration of activity against sea lice” value in data set [2] was 128 days. Moreover, the “chemical stability of the active ingredient” value in data set [3] was “chemically instable”. Moreover, the “% efficacy pre-adult and adult count” value came to 100% in data set [4] (25 mg/kg lufenuron, 1 month); 95% in data set [4] (25 mg/kg lufenuron, 2 month); 100% in data set [4] (25 mg/kg lufenuron, 3 month); 96% in data set [4] (25 mg/kg lufenuron, 4 month); 100% in data set [4] (25 mg/kg lufenuron, 5 month); 81% in data set [4] (25 mg/kg lufenuron, 6 month). Further, the “% efficacy pre-adult and adult count” value is 90% in data set [4] (50 mg/kg lufenuron, 1 month); 100% in data set [4] (50 mg/kg lufenuron, 2 month); 100% in data set [4] (50 mg/kg lufenuron, 3 month); 100% in data set [4] (50 mg/kg lufenuron, 4 month); 97% in data set [4] (50 mg/kg lufenuron, 5 month); 96% in data set [4] (50 mg/kg lufenuron, 6 month). The “% efficacy pre-adult and adult count” value in data set [4] (50 mg/kg lufenuron, 7 month) came to 98%; in data set [4] (50 mg/kg lufenuron, 8 month), 98%; in data set [4] (75 mg/kg lufenuron, 1 month), 100%; in data set [4] (75 mg/kg lufenuron, 2 month), 100%; in data set [4] (75 mg/kg lufenuron, 3 month) it was 100%; in data set [4] (75 mg/kg lufenuron, 4 month), 96%. Also, the “% efficacy pre-adult and adult count” value in data set [4] (75 mg/kg lufenuron, 5 month) is reported as 100%; in data set [4] (75 mg/kg lufenuron, 6 month), 100%; in data set [4] (75 mg/kg lufenuron, 7 month) it was 98%; in data set [4] (75 mg/kg lufenuron, 8 month), 100%. For the same molecule, the “duration of complete protection of the fish against sea lice infestation” value is on record as “at least 5 month” in data set [4] (25 mg/kg); 8 month in data set [4] (50 mg/kg fish, until the end of the study); 8 month in data set [4] (75 mg/kg, until the end of the study).
